From PMC12711630 (Cell Reports. Physical Science, 2025)
“And” between values parts separate entries of the source, which are not always exact repeats. Equal values may be shown once. Read-outs that look alike come from different tables or passages of the source. Marks after values point to notes of the source that are not given here.

How the values were obtained:
[1] = biological target: T1, (α4)2(β2)3 (HS isoform) α4β2 nAChR WT (Homo sapiens, UniProt P17787+P43681); assay: Two-electrode voltage clamp, Xenopus oocytes expressing HS α4β2 nAChR, wild type; assay type: cell-based; settings: for EC50: varenicline variants series
T1 construct: expressed in transfected cells; host or cells: Xenopus laevis oocytes, nuclear injection of cDNA in plasmid pCI (10 α4 : 1 β2 for LS, 1 α4 : 10 β2 for HS)

[2] = biological target: T2, (α4)3(β2)2 (LS isoform) α4β2 nAChR WT (Homo sapiens, UniProt P17787+P43681); assay: Two-electrode voltage clamp, Xenopus oocytes expressing LS α4β2 nAChR, wild type; assay type: cell-based
T2 construct: expressed in transfected cells; host or cells: Xenopus laevis oocytes, nuclear injection of cDNA in plasmid pCI (10 α4 : 1 β2 for LS, 1 α4 : 10 β2 for HS)

human α4β2 nAChR = biological target: T3, human α4β2 nAChR (Homo sapiens, UniProt P17787+P43681); assay: [3H]epibatidine radioligand binding (saturation and competition), membranes of transfected HEK 293 cells
T3 construct: expressed in transfected cells; host or cells: HEK 293 cells, transient transfection with JetPEI, membranes

human α3β4 nAChR = biological target: T4, human α3β4 nAChR (Homo sapiens, UniProt P30926+P32297); assay: as above
T4 construct: expressed in transfected cells; host or cells: HEK 293 cells, transient transfection with JetPEI, membranes

human α7 nAChR = biological target: T5, human α7 nAChR (Homo sapiens, UniProt P36544); assay: [125I]α-Bgtx radioligand binding (saturation and competition), membranes of transfected SH-SY5Y cells; settings: competition with [125I]α-Bgtx 2-3 nM, Cheng-Prusoff
T5 construct: expressed in transfected cells; host or cells: SH-SY5Y cells, transient transfection with JetPEI, membranes

[3] = biological target: T6, (α4)2(β2)3 (HS isoform) α4β2 nAChR (Homo sapiens, UniProt P17787+P43681); assay: Inhibition of ACh EC80 current responses, Xenopus oocytes, HS isoform; assay type: cell-based
T6 construct: expressed in transfected cells; host or cells: Xenopus laevis oocytes, nuclear injection of cDNA in plasmid pCI (10 α4 : 1 β2 for LS, 1 α4 : 10 β2 for HS)

[4] = biological target: T7, (α4)3(β2)2 (LS isoform) α4β2 nAChR (Homo sapiens, UniProt P17787+P43681); assay: Inhibition of ACh EC80 current responses, Xenopus oocytes, LS isoform; assay type: cell-based
T7 construct: expressed in transfected cells; host or cells: Xenopus laevis oocytes, nuclear injection of cDNA in plasmid pCI (10 α4 : 1 β2 for LS, 1 α4 : 10 β2 for HS)

5-HT3A receptor [5] = biological target: T8, 5-HT3A receptor (Homo sapiens, UniProt P46098); assay: Inhibition of [3H]GR65630 binding, transfected HEK293 cell membranes; settings: for IC50: n=3
T8 sequence (P46098 24-478): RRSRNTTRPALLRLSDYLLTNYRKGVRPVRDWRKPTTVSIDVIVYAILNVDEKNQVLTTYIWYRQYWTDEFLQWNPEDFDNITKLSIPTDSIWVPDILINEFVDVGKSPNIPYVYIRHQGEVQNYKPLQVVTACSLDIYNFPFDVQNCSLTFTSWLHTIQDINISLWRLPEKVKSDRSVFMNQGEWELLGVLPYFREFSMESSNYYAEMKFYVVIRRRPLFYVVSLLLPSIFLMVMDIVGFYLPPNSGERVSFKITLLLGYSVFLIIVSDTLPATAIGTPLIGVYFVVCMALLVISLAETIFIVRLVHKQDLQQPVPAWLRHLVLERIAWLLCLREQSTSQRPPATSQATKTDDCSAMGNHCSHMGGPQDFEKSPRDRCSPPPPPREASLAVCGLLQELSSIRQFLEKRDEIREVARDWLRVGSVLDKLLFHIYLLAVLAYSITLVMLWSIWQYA

5-HT3A receptor [6] = biological target: T8, 5-HT3A receptor; assay: FlexStation fluorescent membrane-potential dye assay, transfected HEK 293 cells; assay type: cell-based; settings: for functional response at 5-HT3A receptors: concentrations up to 30 µM; for EC50: n=4
[7] = Spectrophotometric titration pKa determination; settings: for protonated fraction of ammonium center: at pH 7.5
[8] = biological target: T9, (α4)2(β2)3 (HS isoform) α4β2 nAChR β2S133V (Homo sapiens, UniProt P17787+P43681, S133V); assay: Two-electrode voltage clamp, Xenopus oocytes, HS α4β2 nAChR β2S133V; assay type: cell-based
T9 construct: expressed in transfected cells; host or cells: Xenopus laevis oocytes, nuclear injection of cDNA in plasmid pCI

[9] = biological target: T10, (α4)2(β2)3 (HS isoform) α4β2 nAChR α4T183V (Homo sapiens, UniProt P17787+P43681, T183V); assay: Two-electrode voltage clamp, Xenopus oocytes, HS α4β2 nAChR α4T183V; assay type: cell-based
T10 construct: expressed in transfected cells; host or cells: Xenopus laevis oocytes, nuclear injection of cDNA in plasmid pCI

[10] = biological target: T11, (α4)2(β2)3 (HS isoform) α4β2 nAChR α4T139V (Homo sapiens, UniProt P17787+P43681, T139V); assay: Two-electrode voltage clamp, Xenopus oocytes, HS α4β2 nAChR α4T139V; assay type: cell-based
T11 construct: expressed in transfected cells; host or cells: Xenopus laevis oocytes, nuclear injection of cDNA in plasmid pCI

[11] = biological target: T12, (α4)2(β2)3 (HS isoform) α4β2 nAChR β2S133Vα4T183V (Homo sapiens, UniProt P17787+P43681, S133V/T183V); assay: Two-electrode voltage clamp, Xenopus oocytes, HS α4β2 nAChR β2S133Vα4T183V; assay type: cell-based
T12 construct: expressed in transfected cells; host or cells: Xenopus laevis oocytes, nuclear injection of cDNA in plasmid pCI

[12] = biological target: T13, (α4)2(β2)3 (HS isoform) α4β2 nAChR β2S133Vα4T139V (Homo sapiens, UniProt P17787+P43681, S133V/T139V); assay: Two-electrode voltage clamp, Xenopus oocytes, HS α4β2 nAChR β2S133Vα4T139V; assay type: cell-based
T13 construct: expressed in transfected cells; host or cells: Xenopus laevis oocytes, nuclear injection of cDNA in plasmid pCI

[13] = biological target: T14, (α4)3(β2)2 (LS isoform) α4β2 nAChR β2S133V (Homo sapiens, UniProt P17787+P43681, S133V); assay: Two-electrode voltage clamp, Xenopus oocytes, LS α4β2 nAChR β2S133V; assay type: cell-based
T14 construct: expressed in transfected cells; host or cells: Xenopus laevis oocytes, nuclear injection of cDNA in plasmid pCI

[14] = biological target: T15, (α4)3(β2)2 (LS isoform) α4β2 nAChR α4T183V (Homo sapiens, UniProt P17787+P43681, T183V); assay: Two-electrode voltage clamp, Xenopus oocytes, LS α4β2 nAChR α4T183V; assay type: cell-based
T15 construct: expressed in transfected cells; host or cells: Xenopus laevis oocytes, nuclear injection of cDNA in plasmid pCI

[15] = biological target: T16, (α4)3(β2)2 (LS isoform) α4β2 nAChR α4T139V (Homo sapiens, UniProt P17787+P43681, T139V); assay: Two-electrode voltage clamp, Xenopus oocytes, LS α4β2 nAChR α4T139V; assay type: cell-based
T16 construct: expressed in transfected cells; host or cells: Xenopus laevis oocytes, nuclear injection of cDNA in plasmid pCI

[16] = biological target: T17, (α4)3(β2)2 (LS isoform) α4β2 nAChR β2S133Vα4T183V (Homo sapiens, UniProt P17787+P43681, S133V/T183V); assay: Two-electrode voltage clamp, Xenopus oocytes, LS α4β2 nAChR β2S133Vα4T183V; assay type: cell-based
T17 construct: expressed in transfected cells; host or cells: Xenopus laevis oocytes, nuclear injection of cDNA in plasmid pCI

[17] = biological target: T18, (α4)3(β2)2 (LS isoform) α4β2 nAChR β2S133Vα4T139V (Homo sapiens, UniProt P17787+P43681, S133V/T139V); assay: Two-electrode voltage clamp, Xenopus oocytes, LS α4β2 nAChR β2S133Vα4T139V; assay type: cell-based
T18 construct: expressed in transfected cells; host or cells: Xenopus laevis oocytes, nuclear injection of cDNA in plasmid pCI

[18] = tested on: human 5-HT3 serotonin receptor; settings: cited from earlier work
[19] = cited from earlier work
α4β2 = settings: read-out: affinity at α4β2; cited from earlier work
[20] = co-applied with ACh EC80 300 µM
[21] = mean + SEM, read-out: pIC50, inhibition of [3H]GR65630 binding (converted)
[22] = [3H]GR65630 0.3 nM, read-out: IC50, inhibition of [3H]GR65630 binding

## c1ccc2cc3c(cc2c1)C1CNCC3C1 [C2 varenicline 4]
[1]
  RE: 0.022 ± 0.0033 ^a
  fold increase in EC50 vs varenicline 1: 10 fold
  fold reduction of efficacy vs varenicline 1: 6 fold
[1]; Table 3, HS (α4)2(β2)3
  EC50: 2.64 ± 0.8 µM
[2]
  RE: 0.102 ± 0.012 ^a
  fold increase in EC50 vs varenicline 1: 10 fold
  fold reduction of efficacy vs varenicline 1: 4 fold
[2]; Table 3, LS (α4)3(β2)2, varenicline variants series, read-out: EC50
  EC50: 11.5 ± 1.74 µM
Human α4β2 nAChR
  Ki: 0.0143 ± 0.0016 µM
  fold decrease in affinity compared to varenicline 1: approximately 30 fold
Human α3β4 nAChR
  Ki ratio α3β4/α4β2: 18.7
Human α3β4 nAChR; competition with [3H]epibatidine 0.25 nM, Cheng-Prusoff
  Ki: 0.267 ± 0.073 µM
Human α7 nAChR
  Ki: 1.32 µM
[3]
  IC50: 11 ± 1.2 µM
[4]; [20]
  IC50: 33 ± 14 µM
5-HT3A receptor [5]
  fold increase of IC50 against [3H]GR65630 compared to varenicline 1: 44 fold
5-HT3A receptor [5]; [21]
  IC50: 13.6 µM
5-HT3A receptor [6]
  functional response at 5-HT3A receptors: No signiﬁcant responses
physchem
  pKa: 9.63 ± 0.08
[7]
  protonated fraction of ammonium center: ≥ 90%

## O=c1cccc2n1C[C@@H]1CNC[C@H]2C1 [Cytisine 3, cytisine]
[1]
  RE (relative efficacy, I/ImaxACh): 0.025 and 0.025 ± 0.004
[8]
  RE (relative efficacy, I/ImaxACh): 0.016 ± 0.002
[9]
  RE (relative efficacy, I/ImaxACh): 0.021 ± 0.003
[10]
  RE (relative efficacy, I/ImaxACh): 0.023 ± 0.001
[11]
  RE (relative efficacy, I/ImaxACh): 0.018 ± 0.003
[12]
  RE (relative efficacy, I/ImaxACh): 0.022 ± 0.009
[2]
  EC50: 2.9 ± 0.8 µM
  RE (relative efficacy, I/ImaxACh): 0.23 and 0.23 ± 0.08
[13]
  EC50: 5.1 ± 1 µM
  RE (relative efficacy, I/ImaxACh): 0.21 ± 0.01
[14]
  EC50: 4.6 ± 1 µM
  RE (relative efficacy, I/ImaxACh): 0.22 ± 0.02
[15]
  EC50: 2.5 ± 0.7 µM
  RE (relative efficacy, I/ImaxACh): 0.19 ± 0.02
[16]
  EC50: 6.9 ± 1.5 µM
  RE (relative efficacy, I/ImaxACh): 0.19 ± 0.01
[17]
  EC50: 5.8 ± 1.4 µM
  RE (relative efficacy, I/ImaxACh): 0.18 ± 0.01
[18]
  fold less potent than varenicline 1: 2,000 fold
physchem; pKa value
  pKa: 8.07

## c1ccc2nc3c(nc2c1)C1CNCC3C1 [Isovarenicline 5]
[1]
  RE: 0.0071 ± 0.00086 ^a
  fold reduction of efficacy vs varenicline 1: 20 fold
[1]; Table 3, HS (α4)2(β2)3
  EC50: 13.3 ± 2.5 µM
[2]
  RE: 0.054 ± 0.013 ^a
  fold reduction of efficacy vs varenicline 1: 7 fold
[2]; read-out: EC50
  EC50: 26 ± 8.5 µM
Human α4β2 nAChR; read-out: Ki α4β2
  Ki: 5.46 µM
Human α3β4 nAChR
  Ki: 67.7 µM
  Ki ratio α3β4/α4β2: 12
Human α7 nAChR
  Ki: 127 µM
[3]
  IC50: 70 ± 12 µM
[4]
  IC50: 142 ± 21 µM
5-HT3A receptor [5]
  fold increase of IC50 against [3H]GR65630 compared to varenicline 1: 165 fold
5-HT3A receptor [5]; [22]
  IC50: 49.6 µM
5-HT3A receptor [6]
  functional response at 5-HT3A receptors: No signiﬁcant responses
physchem
  pKa: 8.44 ± 0.09
[7]
  protonated fraction of ammonium center: ≥ 90%

## c1cnc2nc3c(nc2n1)C1CNCC3C1 [N2 varenicline 6]
[1]
  RE: 0.0010 ± 0.0001 ^a
[2]
  RE: 0.0032 ± 0.0023 ^a
[3]; co-applied with ACh EC80 30 µM
  IC50: > 1000 µM
[4]; [20]
  IC50: > 1000 µM
5-HT3A receptor [5]
  fold increase of IC50 against [3H]GR65630 compared to varenicline 1: 250 fold
5-HT3A receptor [5]; [22]
  IC50: 75.8 µM
5-HT3A receptor [6]
  functional response at 5-HT3A receptors: No signiﬁcant responses
physchem
  pKa: 7.31 ± 0.05

## c1cnc2cc3c(cc2n1)[C@@H]1CNC[C@H]3C1 [Varenicline 1, varenicline, reference compound]
[1]; Table 3, HS (α4)2(β2)3, relative to maximal ACh response
  RE: 0.14 ± 0.012
[2]; Table 3, LS (α4)3(β2)2, relative to maximal ACh response
  RE: 0.38 ± 0.025
[15]
  reduction of RE vs WT: 50%
5-HT3A receptor [5]; [21]
  IC50: 0.304 µM
5-HT3A receptor [6]; EC50, activation of 5-HT3A receptors, membrane-potential sensitive dye
  EC50: 0.4 µM
5-HT3A receptor [6]; pEC50, activation of 5-HT3A receptors, mean + SEM
  EC50: 0.437 µM
[19]; ref Pfizer[80]
  pKa, literature value: 9.2
[19]; ref Rollema et al.[81]
  pKa, literature value: 9.3
[19]; ref Unal et al.[82]
  pKa, literature value: 9.22 ± 0.13
[7]
  pKa: 8.9 ± 0.1

## c1ccc2c(c1)C1CNCC2C1 [benzo variant, 2,3,4,5-tetrahydro-1H-1,5-methanobenzo[d]azepine]
α4β2
  Ki: 0.02 µM
